# Source: US20050158321A1, “Treatment of rheumatoid arthritis with galectin-3 antagonists” (Entelos, Inc., priority 2003, published 2005)
# Key:
# [1] = tested on: arthritis induced by monoclonal antibodies raised against type II collagen, plus lipopolysaccharide; assay: Inflammation, Collagen Arthritis, mAb in Mice (hind paw volume); format: in vivo, BALB/c mice
# Protocol: Galectin-3 Ab was evaluated for possible anti-inflammatory activity in BALB/c mice with arthritis induced by monoclonal antibodies (mAb) raised against type II Collagen, plus lipoplysaccharide. Galectin-3 Ab (1, 0.5 and 0.25 mg/mouse×3) was administered intraperitoneally once daily for 3 consecutive days starting on day 3. Volumes of both hind paws were measured on days 5, 7, 10, 14 and 17 and the sum of both hind paw volumes was calulated. A 30% percent or more reduction (−30%) relative to the vehicle-treated group indicates significant.
# Galectin-3 Ab, B2C10 from Pharmingen, was dissolved in distilled water. Test substance at 1, 0.5 and 0.25 mg/mouse and vehicle were each administered intraperitoneally once daily for 3 consecutive days starting on day 3. The dosing volume was 0.2 ml/mouse for the test compound or 10 ml/kg (PO) for indomethacin. All treatments are summarized below:
# Collagen Arthritis, mAb Groups of 7 BALB/c strain mice, 6-7 weeks of age, were used for the induction of arthritis by monoclonal antibodies (mAbs) raised against type II collagen, plus lipopolysaccharide (LPS). A combination of 4 different mAbs (D8, F10, DI-2G and A2) totaling 4 mg/mouse was administered to the animals intravenously on day 0, followed by intravenous challenge with […] of LPS 72 hours later (day3). From one hour after LPS injection, Galectin-3 Ab (1, 0.5 and 0.25 mg/mouse) and vehicle were each administered intraperitoneally once daily for 3 consecutive days starting on day 3. Whereas, indomethacin which served as the positive control was administered orally (3 mg/kg) once daily for 3 consecutive days at the same time schedule as test compound. For each animal, volumes of both hind paws were measured using a plethysmometer with water cell (12 mm diameter) on Days 0, 5, 7, 10, 14 and 17. Percent inhibition of increase in volume was calculated by the following formula: Inhibition (%): [1−(Tn−T0)/(Cn−C0)]×100% • Where: • C0 (Cn): volume of day 0 (day n) in vehicle control • T0 (Tn): volume of day 0 (day n) in test compound-treated group.
# Reduction of edema in the hind paws by 30% or more (^3 30%) is considered significant. In addition, body weight was documented during the testing period of day 0, 5, 7, 10, 14 and 17 in each animal percentage of body weight of each compound group at time points were calculated referring to the vehicle control group at each measurement day as 100%.
# [2] = tested on: peripheral blood monocytes from healthy donors and rheumatoid arthritis patients; assay: Monocyte chemotaxis assay (96-well chemotaxis plates); format: cell-based, human; settings: for migration of monocytes in combination with galectin-3: FIG. 14B, 14C
# Protocol: Peripheral blood mononuclear cells (PBMCs) were isolated from 6 healthy volunteer donors and 6 rheumatoid arthritis (RA) patients following informed consent and in accordance with protocols approved by the AMC Medical Ethics committee. Donor blood was diluted with cold PBS and PBMCs isolated by centrifugation over Ficoll. The PBMC layer was recovered and washed twice with PBS. Cells were counted, and monocytes isolated using a Dynal monocytes negative isolation kit as per the manufacturer's instructions. Monocytes were resuspended at 2×10^6 cells/ml in RPMI medium containing 0.5% fetal calf serum.
# Chemotaxis assays were performed using 96-well disposable chemotaxis plates (Neuroprobe, 8 μm diameter pore size). Wells were preincubated for 1 hour at 37° C. with medium alone (RPMI containing 0.5% fetal calf serum), murine anti-human galectin-3 antibody B2C10 (0.1, 1 or 3 μg/ml) or lactose (10 mM). Lactose is a non-specific inhibitor of galectin-3. Purified recombinant human galectin-3 (1, 10 or 100 nM) was also included in the preincubation step. 5×10^4 monocytes obtained from healthy donors were added to the top of the filter in triplicate wells and cells allowed to migrate for 90 minutes at 37° C. The filter was then washed with PBS, and adhering non-migrating cells removed from the top of the filter by wiping. Migrating cells within the filter Were visualized by staining with crystal violet solution and washing with water. Following air-drying overnight, a computer digital imaging analyzer was used to capture 20 high-powered (400× magnification) fields encompassing the complete transwell filter, and migrating cells counted manually. FIG. 12 provides the relative amount migration (chemotaxis) in the presence of varying levels of galectin-3 and inhibitors of galectin-3 activity (B2C10 and lactose).
# In a second experiment, wells were preincubated for 1 hour at 37° C. with medium alone (RPMI containing 0.5% fetal calf serum), murine anti-human galectin-3 antibody B2C10 (0.1, 1 or 3 μg/ml) or lactose (10 mM). Lactose is a non-specific inhibitor of galectin-3. Purified recombinant human galectin-3 (1, 10 or 100 nM) was also included in the preincubation step. 5×10^4 monocytes obtained from rheumatoid arthritis patients were added to the top of the filter in triplicate wells and cells allowed to migrate for 90 minutes at 37° C. The filter was then processed as described above and migrating cells were counted manually. […]
# Monocytes from 6 rheumatoid arthritis patient were stimulated with 6 different synovial fluids and monocyte chemotaxis was measured as described above in the presence of different concentrations of galectin-3 blocking antibody. […]
# rheumatoid arthritis = settings: methotrexate treatment, known effect; cited from earlier work
compound,measurement,setting,value
"COc1ccc2c(c1)c(CC(=O)O)c(C)n2C(=O)c1ccc(Cl)cc1 [Indomethacin, indomethacin]",(%) Reduction of Edema vs. Vehicle Control,"[1]; Day 5, PO 3 mg/kg × 3, parenthesis = significant",(94) %
same,(%) Reduction of Edema vs. Vehicle Control,"[1]; Day 5, PO 3 mg/kg × 3, parenthesis = significant, listed as indomethacin",94%
same,(%) Reduction of Edema vs. Vehicle Control,"[1]; Day 7, PO 3 mg/kg × 3, parenthesis = significant",(70) %
same,(%) Reduction of Edema vs. Vehicle Control,"[1]; Day 7, PO 3 mg/kg × 3, parenthesis = significant, listed as indomethacin",70%
same,(%) Reduction of Edema vs. Vehicle Control,"[1]; Day 10, PO 3 mg/kg × 3, parenthesis = significant",(85) %
same,(%) Reduction of Edema vs. Vehicle Control,"[1]; Day 10, PO 3 mg/kg × 3, parenthesis = significant, listed as indomethacin",85%
same,(%) Reduction of Edema vs. Vehicle Control,"[1]; Day 14, PO 3 mg/kg × 3, parenthesis = significant",(85) %
same,(%) Reduction of Edema vs. Vehicle Control,"[1]; Day 14, PO 3 mg/kg × 3, parenthesis = significant, listed as indomethacin",85%
same,(%) Reduction of Edema vs. Vehicle Control,"[1]; Day 17, PO 3 mg/kg × 3, parenthesis = significant",(84) %
same,(%) Reduction of Edema vs. Vehicle Control,"[1]; Day 17, PO 3 mg/kg × 3, parenthesis = significant, listed as indomethacin",84%
Galectin-3: purified recombinant human galectin-3,"induction of chemotactic activity, alone","[2]; healthy donor or RA peripheral blood monocytes, 1, 10 or 100 nM",does not reproducibly induce chemotactic activity
same,monocyte chemotaxis in the presence of 1 ng/ml fMLP,"[2]; single healthy donor, FIG. 14A",increases monocyte chemotaxis in a concentration dependent manner
"SDF-1: Stromal cell-Derived Factor-1, chemotactic cytokine",migration of monocytes in combination with galectin-3,[2]; single healthy donor,induce migration
"CN(Cc1cnc2nc(N)nc(N)c2n1)c1ccc(C(=O)N[C@@H](CCC(=O)O)C(=O)O)cc1 [Methotrexate, methotrexate]",decrease of synovial cell density,rheumatoid arthritis,approximately 30%
same,decrease of the concentration of IL-6 in synovial tissue,rheumatoid arthritis,93%
same,decrease of the rate of cartilage degradation,rheumatoid arthritis,approximately 15%
"MCP-1: Monocyte Chemotactic Protein-1, chemotactic cytokine",migration of monocytes in combination with galectin-3,[2]; single healthy donor,induce migration
